The results in this text go back to ChEMBL document CHEMBL1150628, “Cytotoxic beta-carbolines and cyclic peroxides from the Palauan sponge Plakortis nigra” (J Nat Prod, 2002).

The subject of the experiment is HCT-116. As to the kind of experiment: Cytotoxicity against human HCT116 cells. It counts as functional, cell-based.
`CN1CCC(c2nccc3c2[nH]c2cc(Br)ccc23)O1` (stereo not given) [PLAKORTAMINE D]: the IC50 came to 15 µM.
As for `CN(CCc1nccc2c1[nH]c1cc(Br)ccc12)CCc1nccc2c1[nH]c1cc(Br)ccc12` [PLAKORTAMINE C], the figure is 2.15 µM; as for `C=Cc1nccc2c1[nH]c1cc(Br)ccc12` [PLAKORTAMINE B], 0.62 µM.
As for `CN(C)CCc1nccc2c1[nH]c1cc(Br)ccc12` [PLAKORTAMINE A], the figure is 3.2 µM; as for `C[C@H]1C[C@@](C)(CCCCCCCCCCCCc2ccccc2)OC1=O` (relative stereo), 14.5 µM.

For orientation: IC50 means the midpoint of a concentration-inhibition curve. Read a high IC50 as weaker potency in that assay.
